# Tests used:
# P-STAT3 = experiment: Western blot of STAT3 phosphorylation; type: cell-based, human; conditions: H460, A549 and PC-9 cells, 12 h, concentration-dependently
# Protocol: (§1) Tissue proteins were extracted with tissue protein lysate buffer. Cells were grown to different densities and extracted with cell protein lysate buffer. The protein was mixed with loading buffer and boiled for 10 min at 100 °C, then loaded and separated by 10% or 12% sodium dodecyl sulfate-polyacrylamide gel (SDS-PAGE) and then transferred onto a PVDF membrane blocking with 5% skim milk. The blots were incubated overnight with specific primary antibodies at 4 °C. On the second day, after washing with TBST (a mixture of tris-buffered saline (TBS) and Tween 20) three times, the […] membranes were incubated with horseradish peroxidase-conjugated secondary antibodies for 1 h. The immunoreactive bands were visualised with enhanced chemiluminescence reagent.
# NIH mice = experiment: Acute toxicity test; type: in vivo
# Protocol: In the acute toxicity test, 30 NIH mice (female, 8 weeks old) were randomly divided into three groups (n = 10), including vehicle group, bufalin group (30 mg/kg) and acetyl-bufalin group (30 mg/kg). The three groups received intraperitoneal injection only on the first day. All the mice were housed under 12 h light–dark cycles at 25 °C and free for water and diet. […] All the mice were sacrificed by cervical dislocation.
# STAT3 = STAT3 luciferase-report assay; type: cell-based, human; conditions: PC-9 and H460 cells, 0-200 nM, 12 h
# Protocol: STAT3 activation was detected by the STAT3 luciferase reporter plasmid (PGLSTAT3-LUC), as was previously described.[23] Simply put, PC-9 and H460 cells were seeded in 24-well plates and incubated for 24 h before transfection. The cells were grown to different densities and co-transfected with pGLSTAT3-Luc and pRL-TK (a plasmid encoding Renilla luciferase) for 6 h using Lipofectamine 3000 (Invitrogen, Carlsbad, CA, USA). Finally, the cells were treated with different concentrations of […] for 12 h. Luciferase activity was assessed by SpectraMax ID3 (Molecular Devices, San Jose, CA, USA). The inhibition of STAT3 activity by acetyl-bufalin was calculated as the ratio between the value of firefly and Renilla luciferase activity. Each experiment was done in triplicate in three independent experiments.
# human NSCLC cells = experiment: Colony-formation assay; type: cell-based; conditions: 50, 100, 200 nM for 24 h, colonies after 7 days
# Protocol: The human NSCLC cells and normal cells were seeded at 1000 cells/well on six-well plates, placed in 5% CO2 atmosphere and cultured overnight at 37 °C. DMSO (Control) and acetyl-bufalin (50, 100, 200 nM) were added to the cells for 24 h. The fresh medium was replaced every 2 days to maintain the growth of cells for 7 days. Colonies were washed with phosphate-buffered saline (PBS), fixed with 4% paraformaldehyde at room temperature for 15 min, washed with purified water for three times and stained with Crystal violet for 10 min. Each experiment was in triplicate, and three independent experiments were carried out.
# [1] = system: P-CDK9, CDK9, P-STAT3 and S2 RNAPII; experiment: Western blot of CDK9/STAT3 pathway proteins; type: cell-based, human; conditions: H460 and PC-9 cells, 12 h; acetyl-bufalin 25-200 nM, SNS-032 200 nM
# Protocol: as §1
# [2] = system: normal lung cells BEAS-2B; experiment: MTT cytotoxicity assay, normal lung cells BEAS-2B; type: cell-based, human
# Protocol: (§2) The cytotoxicity and viability of human NSCLC cells and normal cells were determined by MTT assay. MTT assay was performed as described previously.[22] MTT assay was used to determine the cell cytotoxicity and viability in human NSCLC cells. Cells (5 × 10^3 cells/well) were plated in 96-well plates and attached overnight. After the proper treatment, the MTT solution was added at 25 µL/well and incubated at 37 °C for 4 h. The formazan crystals were dissolved in 150 µL of DMSO, and the optical density (OD) was measured using a Microplate Reader at 490 nm. The cell viability was calculated by the following formula: viability = (average OD values of treatment wells/average OD values of vehicle control wells) × 100%. And half-maximal inhibitory concentration (IC50) values were determined by GraphPad Pro Prism 7.0.
# H460 and PC-9 cells = experiment: Cell proliferation in cells transfected with CDK9 siRNA or control siRNA; type: cell-based, human
# Protocol: as §2
# The siRNA targeting human CDK9 was purchased from Genepharma (Shanghai, China) with the following sequence: siCDK9-1: 5′-[…] TT-3′, siCDK9-2: 5′-[…]-3′, siCDK9-3: 5′-[…]-3′. Cells were transfected with 50 nM siRNA using Lipofectamine 3000 (Invitrogen, CA, USA) for 48 h.
# A549 cells = experiment: MTT cytotoxicity assay, A549 cells; type: cell-based; conditions: Homo sapiens; A549 cells, 48 h, MTT; read-out: IC50
# Protocol: as §2
compound,measurement,setting,value
CC(=O)OC1CCC2(C)C(CCC3C2CCC2(C)C(c4ccc(=O)oc4)CCC32O)C1 (stereo not shown) [acetyl-bufalin],P-STAT3 protein levels,P-STAT3,reduced
same,weight of the remaining mice,"NIH mice; 30 mg/kg single i.p., 14 days, compared with vehicle",stable
same,mortality (mice died),"NIH mice; 30 mg/kg single intraperitoneal injection, observed 14 days, n = 10",2/10
same,P-STAT3 activation (luciferase reporter),STAT3,significantly inhibited
same,NSCLC cell cloning ability,human NSCLC cells,inhibited dose-dependently
same,"P-CDK9, CDK9, P-STAT3 and S2 RNAPII expressions",[1],significantly dose-dependently decreased
same,cytotoxic effect on normal cells,[2],low toxicity
same,cell proliferation of siCDK9 cells,"H460 and PC-9 cells; H460 and PC-9 transfected with CDK9 siRNA1, 48 h",did not significantly affect
same,cell proliferation of control siRNA cells,"H460 and PC-9 cells; H460 and PC-9 transfected with control siRNA, 48 h",hampered cell proliferation
same,IC50,A549 cells,28.1 nM
